Reference: PMC3308910 (2012)

What was measured:
[1] = molecular target: cytochrome bc1 complex (ubiquinol:cytochrome c oxidoreductase; respiratory complex III) (Homo sapiens, UniProt P00156); format: biochemical
[2] = molecular target: T1, cytochrome bc1 complex (ubiquinol:cytochrome c oxidoreductase; respiratory complex III) (Plasmodium falciparum, UniProt Q02768); format: biochemical
T1 sequence (Q02768 1-376): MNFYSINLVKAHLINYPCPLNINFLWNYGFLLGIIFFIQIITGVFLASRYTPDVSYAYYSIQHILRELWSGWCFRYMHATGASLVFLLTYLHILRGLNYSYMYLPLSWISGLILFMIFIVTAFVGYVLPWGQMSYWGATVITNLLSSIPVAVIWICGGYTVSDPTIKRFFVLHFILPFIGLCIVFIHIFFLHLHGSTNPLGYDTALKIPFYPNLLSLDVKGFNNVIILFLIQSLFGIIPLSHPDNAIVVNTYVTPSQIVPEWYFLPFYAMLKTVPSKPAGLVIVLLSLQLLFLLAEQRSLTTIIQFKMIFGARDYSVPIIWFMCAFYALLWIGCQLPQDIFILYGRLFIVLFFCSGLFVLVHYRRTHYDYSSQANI

cytochrome bc1 complex (ubiquinol:cytochrome c oxidoreductase; respiratory complex III) (Homo sapiens, UniProt P00156), sequence (P00156 whole entry, one chain of several): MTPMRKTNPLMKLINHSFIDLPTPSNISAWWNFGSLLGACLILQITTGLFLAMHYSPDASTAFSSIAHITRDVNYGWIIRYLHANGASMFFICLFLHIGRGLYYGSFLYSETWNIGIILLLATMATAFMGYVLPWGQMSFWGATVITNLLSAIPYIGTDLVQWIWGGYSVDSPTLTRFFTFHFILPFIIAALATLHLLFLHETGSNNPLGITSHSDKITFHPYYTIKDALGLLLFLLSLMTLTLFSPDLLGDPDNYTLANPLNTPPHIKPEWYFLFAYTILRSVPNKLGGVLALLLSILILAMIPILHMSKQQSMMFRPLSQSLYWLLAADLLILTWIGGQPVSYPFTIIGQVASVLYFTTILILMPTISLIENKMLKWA

IC50 [1] [nM]	IC50 [2] [nM]	Compound
327 ± 30	–	O=C1C(O)=C([C@H]2CC[C@H](c3ccc(Cl)cc3)CC2)C(=O)c2ccccc21 [Atovaquone]
–	2 ± 0.5	CCCCCCCCCCOc1cc2c(O)c(C(=O)OCC)cnc2cc1OCC [Decoquinate]
